In paper PMC6006164, “Natural cyclopeptide RA-V inhibits the NF-κB signaling pathway by targeting TAK1” (Cell Death & Disease, 2018):

System: LPS-induced endotoxin shock
Experiment: Mouse endotoxin shock model
Format: in vivo, mice
Experimental: The above results prompted us to explore the in vivo effect of RA-V on the NF-κB signaling pathway. We extended our study to the mouse endotoxin shock model, in which mice were intraperitoneally injected with LPS (10 mg/kg or 20 mg/kg) and evaluated for changes by examining physiological parameters induced by the inflammatory response.
First, the mice were intravenously injected with RA-V micelles (0.25 mg/kg body weight) or control micelles at three time points: 52, 28, and 4 h before they were intraperitoneally injected with phosphate-buffered saline (PBS) or LPS (10 mg/kg). One hour after LPS injection, we examined proinflammatory cytokines (IL-6 and TNF-α) production at the transcriptional and translational levels. […] As expected, after receiving the LPS injection, all of the control mice died within 36 h, whereas 60% of the RA-V-treated mice survived (Fig. 2d). To further confirm the in vivo effect of RA-V on the NF-κB pathway, we performed the endotoxin shock model on NF-κB-luciferase transgenic mice.
Fig. 2 RA-V prevents endotoxic shock and inhibits NF-κB activation in vivo. a–c RA-V prevents endotoxic shock in vivo. Mice (n = 6 per group) were intravenously injected with RA-V micelles (0.25 mg/kg body weight) or control micelles 52, 28, and 4 h before an intraperitoneal injection of LPS (10 mg/kg). One hour later, the relative levels of IL-6 and TNF-α mRNAs in the liver were assessed by quantitative RT-PCR (a), the serum IL-6 and TNF-α levels were quantified by ELISA (b), and the expression of p65 and IκBα phosphorylation in the liver were measured by immunoblot analysis c. d RA-V improved animal survival. Mice (n = 20 per group) were intravenously injected with RA-V micelles (0.25 mg/kg body weight) or control micelles 52, 28, and 4 h before intraperitoneal injection of LPS (20 mg/kg). Animal survival was recorded in 2–3 hours intervals. e RA-V inhibits NF-κB activation in vivo. The NF-κB-luc transgenic mice (n = 4 per group) were intravenously injected with RA-V micelles (0.25 mg/kg body weight) or control micelles 52, 28, and 4 h before intraperitoneal injection with LPS (10 mg/kg). NF-κB-luc transgenic mice were photographed at different time points and representative images are shown. The bioluminescent signals from all of the mice were detected and quantified. The data are presented as the means ± S.D. *, p < 0.05; **, p < 0.01

[1] = RA-V micelles 0.25 mg/kg i.v. 52, 28, 4 h before LPS 10 mg/kg i.p., 1 h after LPS, n = 6

Substance: RA-V
- IL-6 and TNF-α in the serum (ELISA) [1]: reduced expression
- expression of IL-6 and TNF-α mRNAs in liver tissue [1]: significantly decreased
- phosphorylation of IκBα and p65 in liver tissue (RA-V micelles 0.25 mg/kg i.v. 52, 28, 4 h before LPS 10 mg/kg i.p., immunoblot): clearly inhibited
- survival of mice after lethal dose of LPS (RA-V micelles 0.25 mg/kg i.v. 52, 28, 4 h before LPS 20 mg/kg i.p., n = 20, all control mice died within 36 h): 60%
